For orientation: IC50 means the concentration that inhibits the measured activity by half.

For data set [1], the system named is STAT3. Briefly: STAT3-response dual luciferase reporter assay. It counts as cell-based. The protocol: Fig. 1 N4 inhibits STAT3 dimerization and transcription in vitro. A Purified STAT3 protein was incubated with labeled phosphopeptide, 5-carboxyfluorescein-GpYLPQTV-NH2 for 1 h at 37 °C. FP signals were measured, and the data were analyzed using Graph Pad 7.0 software. B Chemical structure of N4. C Different concentrations of N4 were pre-incubated with recombined STAT3 protein for 1 h, then 10 nM of labeled peptide was added for 1 h. The IC50 was calculated using Graph Pad 7.0. D, E, F STAT3 specific luciferase reporter plasmid was transiently transfected into 293T cells. After 24 h transfection, IL-6 (20 ng/mL), OSM (10 ng/mL), and V-SRC expression plasmid (200 ng) was used to activate STAT3 luciferase activity, N4 was added at the indicated concentrations. Renilla luciferase activities were used as an internal reference (n = 2 per group). The values are expressed as mean ± SD and the bars indicate statistically significant differences (t test), *P < 0.05; **P < 0.01; ***P < 0.001.
Dual luciferase assay was performed as previously described. […] Renilla and firefly luciferase activities were determined by luminometry using the Dual Luciferase Reporter Assay System (Promega). The ratio was calculated.
Supplementary Figure 5. […] The values are expressed as mean ± SD and the bars indicate statistically significant differences (t-test), *P < 0.05; **P < 0.01; ***P < 0.001. […]

The test system of data set [2] is Pancreatic cancer cells. Briefly: Trans-well migration. The class given is cell-based. The procedure: independent assays; *P < 0.05, **P < 0.01, ***P < 0.001, ****p < 0.0001 by one-way ANOVA followed by multiple comparisons. (C) Pancreatic cancer cells were seeded in the top chamber of Trans-well inserts and treated with N4 the following day. The lower chamber was fixed, stained, and photographed. Experiments were carried out in triplicate with identical results obtained. Data shown as mean ± SD; **P < 0.01, ****p < 0.0001 by Student’s t-tests. Scale bar, 100 μm.

Data set [3] deals with PANC-1. Briefly: PANC-1 subcutaneous tumor growth xenograft model. The class given is in vivo. The protocol:
Fig. 5 N4 suppresses pancreatic cancer growth in vivo. PANC-1 cells were injected into the right flank of BALB/c-nude mice. After the volume of tumor nodules reached 200–300 mm^3, the mice were randomly assigned to the indicated groups and were injected intraperitoneally daily with vehicle (n = 7), 40 mg/kg/d C188-9 (n = 7), 10 mg/kg/d N4 (n = 8), or 20 mg/kg/d N4 (n = 8). The mice were sacrificed after treatment for 20 days and the tumors from each group of mice were excised. A, B Tumor volumes were measured every 4 days. Tumor volumes were calculated by the formula: length × width^2 × 0.52. […] C After treatment for 20 days, the tumors from each group of mice were excised and photographed. D After the experiments, all the tumors were weighted. […] E Tumor samples were collected, and protein was extracted for western blot analysis. p-STAT3 (Y705), p-STAT3(S727), STAT3, and CMYC were detected, with GAPDH used as the loading control. Immunohistochemistry examinations were performed in the different treatment groups, p-STAT3 (Y705), Ki-67 and cleaved caspase3 were quantified (F) and photographed (G). The scale bar denotes 20 μm. Data are expressed as mean ± SD, **P < 0.01, ****P < 0.0001 and n.s. not significant by one-way ANOVA.
BALB/c-nude, male, 6–8-week-old mice were obtained from the Animal Center of East China Normal University. All animal experimental protocols were approved by the Animal Investigation Committee of the Institute of Biomedical Sciences, East China Normal University. PANC-1 cells (5 × 10^6) were suspended in PBS with 50% Matrigel and injected into the right flank of the mice. Treatment began after the tumor nodules reached 150–250 mm^3 in volume. The tumor-bearing mice were randomly assigned to four groups and treated with the indicated compounds. The tumor volume and mice body weight were measured after 4 days. The tumor volume (V) was calculated as length × width × width × 0.52. At the end of experiment, the mice were sacrificed. Solid tumors were removed and processed for immunohistochemistry analysis.

For data set [4], the target named is His-STAT3^127-722 protein (Homo sapiens, UniProt P40763). Briefly: Fluorescence polarization (FP) assay, STAT3-phosphopeptide interaction. The class given is binding. Also on record: We purified amino acids 127–722 of the STAT3 protein for this assay; made in house. As to conditions: N4 pre-incubated with STAT3 protein 1 h, then 10 nM labeled peptide 1 h; read-out: IC50, block of the STAT3-peptide interaction. On the technique in general: In fluorescence polarisation assays a small probe gives low polarisation when free and higher when bound to something large.
Protocol: A Purified STAT3 protein was incubated with labeled phosphopeptide, 5-carboxyfluorescein-GpYLPQTV-NH2 for 1 h at 37 °C. FP signals were measured, and the data were analyzed using Graph Pad 7.0 software. […] C Different concentrations of N4 were pre-incubated with recombined STAT3 protein for 1 h, then 10 nM of labeled peptide was added for 1 h. The IC50 was calculated using Graph Pad 7.0.
The labeled phosphopeptide: 5-carboxyfluorescein-GpYLPQTV-NH2 (where pY represents phospho-Tyr) was used as the STAT3 binding probe. To evaluate the effect of compounds in inhibiting STAT3-peptide interaction, serial dilutions of the STAT3 competitors were prepared. The diluted compounds were added to the reaction mixture in 100 μl of FP buffer (50 mM HEPES, pH 7.5, 150 mM NaCl, 0.1% NP-40, and 1 mM dithiothreitol) containing 500 nM his-STAT3^127–722 protein for pre-incubation at 37 °C for 1 h. Then, 10 nM of the labeled peptide was added and incubated for 1 h. After incubation, FP was measured on a Cytation^TM 5 cell imaging multi-mode Reader (BioTek) using excitation and emission wavelengths of 480 nm and 535 nm, respectively. Each reaction was repeated two or three times. Binding or competitive parameters were calculated from a nonlinear regression using GraphPad Prism 7.0.

“And” between values parts separate entries of the source, which are not always exact repeats. Equal values may be shown once.

His-STAT3^127-722 protein, sequence (P40763 127-722): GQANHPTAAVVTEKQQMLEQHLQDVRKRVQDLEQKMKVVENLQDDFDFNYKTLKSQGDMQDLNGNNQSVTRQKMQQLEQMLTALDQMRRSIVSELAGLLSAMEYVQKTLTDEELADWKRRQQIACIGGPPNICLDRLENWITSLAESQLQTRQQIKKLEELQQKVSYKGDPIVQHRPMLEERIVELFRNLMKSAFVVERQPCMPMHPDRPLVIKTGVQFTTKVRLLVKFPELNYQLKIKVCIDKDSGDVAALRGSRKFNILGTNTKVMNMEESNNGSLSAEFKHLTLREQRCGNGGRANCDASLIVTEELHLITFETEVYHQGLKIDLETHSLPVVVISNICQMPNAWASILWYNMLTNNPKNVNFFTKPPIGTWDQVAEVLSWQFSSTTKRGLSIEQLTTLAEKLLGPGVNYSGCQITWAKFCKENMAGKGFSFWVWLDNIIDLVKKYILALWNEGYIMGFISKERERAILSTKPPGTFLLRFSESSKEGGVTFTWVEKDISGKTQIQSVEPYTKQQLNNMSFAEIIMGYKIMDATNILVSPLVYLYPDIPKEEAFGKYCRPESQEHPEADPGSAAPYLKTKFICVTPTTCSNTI

With `COc1cc2c(cc1C(=O)Nc1cccc3cccnc13)CCC1C(C)(C)C(=O)C(C#N)=C[C@]21C` (stereo partly shown) [N4], the “STAT3-dependent luciferase reporter activity” value in data set [1] (293T cells, IL-6, OSM or V-SRC induced) is “suppressed”. Besides, in data set [1] (PANC-1 and BXPC-3 cells, with or without IL-6 stimulation), the STAT3-response luciferase activities result was “efficiently inhibited”. For the same compound, the pancreatic cancer migration entry in data set [2] is on record as “efficiently blocked”. In data set [3] (10 and 20 mg/kg/d), the bodyweight of mice entry is recorded as “did not affect”. Besides, the “pancreatic cancer growth (tumor volume)” value in data set [3] (10 and 20 mg/kg/d, intraperitoneally daily, 20 days) is on record as “significantly inhibited”. In addition, the “Hematoxylin and eosin staining of main organs, signs of toxicity” value in data set [3] (mouse, in vivo) is given as “did not produce morphological signs of toxicity”. The IC50 in data set [4] is 570 nM and 568 nM.
